Results as given in PMC2739159, “Evidence for inhibition of cholinesterases in insect and mammalian nervous systems by the insect repellent deet” (BMC Biology, 2009).

Key:
HuBChE = target: T1, HuBChE (Homo sapiens, UniProt P06276); test: Ellman assay, […] nm; global fit of hydrolysis inhibition and carbamoylation; format: biochemical; conditions: read-out: HuBChE (BTCh)
T1 construct: gene BCHE; native human enzyme, commercial (Sigma Chemical Co.)

DmAChE = target: T2, DmAChE (Drosophila melanogaster, UniProt P07140); test: as above; format: biochemical; conditions: read-out: DmAChE (ATCh)
T2 construct: gene Ace

Work on `CCN(CC)C(=O)c1cccc(C)c1` [deet, N,N-Diethyl-3-methylbenzamide] yielded a Ki (HuBChE) of 370 ± 50 µM and a Ki (DmAChE) of 1020 ± 30 µM.
